Experimental data published in article PMC5874699, “Antimicrobial and Antibiofilm Activity of UP-5, an Ultrashort Antimicrobial Peptide Designed Using Only Arginine and Biphenylalanine” (Pharmaceuticals, 2018).
Where two headings read alike, the source gives them in different places. Square brackets hold non-standard residues; d marks the D form. Peptide text beside a SMILES is read from it. Bip = N[C@@H](Cc1ccc(-c2ccccc2)cc1)C(=O)O

Tests used:
in vitro = in vitro ADME; details: mouse
Experimental: The stability assay of UP-5 relied on a previously reported stability test procedure employing mouse plasma or mouse serum (PAA Laboratories, Pasching, Austria). Briefly, a stock solution of the peptide was prepared in 5% aqueous DMSO. The highest DMSO concentration was less than 0.5% after dilution in order to have a final concentration of peptide equal to 1 g/L. Each peptide was dissolved in plasma or serum at a final concentration corresponding to 75 µg/mL and incubated at 37 °C (750 rpm, Eppendorf, Hamburg, Germany). After different time periods, aliquots (47.5 µL) were taken and proteins were precipitated by addition of 150 µL of a mixture composed acetonitrile, water, and formic acid (89:10:1 by volume). The samples were incubated on ice for 45 min and centrifuged for 10 min at 13,000× g (Eppendorf, Hamburg, Germany). […] The second supernatant (155 µL) was collected and dried under vacuum. The samples were dissolved in 3% aqueous acetonitrile containing, 0.1% formic acid, and were analyzed using an Agilent 1100 HPLC system (Agilent Technologies, Santa Clara, CA, USA), coupled online to an Esquire HCT mass spectrometer (Bruker Daltonik GmbH, Bremen, Germany) equipped with an analytical Jupiter C18-reversed phase column (2 mm inner diameter, 150 mm length, 5 µm particle size, […]). Eluent A contained 0.1% formic acid in water and Eluent B was 60% aqueous acetonitrile containing 0.1% formic acid.

[1] = system: P. aeruginosa (ATCC BAA-2114); experiment: Broth microdilution checkerboard, UP-5 with antibiotics; format: cell-based, Pseudomonas aeruginosa; details: P. auroginosa ATCC BAA-2114, checkerboard, triplicate
Source text: All bacterial susceptibility, biofilm, and synergistic assays of peptides, antibiotics, and peptides-antibiotics combinations used bacterial strains obtained from the American Type Tissue Culture Collection (ATCC, Manassas, VA, USA) that states the mechanism of resistance for each strain according to ATCC number. Gram-positive bacteria were represented by five strains, the wild type strain Staphylococcus aureus (ATCC 29213) and methicillin-resistant S. aureus (MRSA) (ATCC 33591) in addition to clinically isolated strains S. aureus (ATCC BAA-41& 43300) and Enterococcus faecalis (ATCC BAA-2316). The Gram-negative bacteria strains were represented by wild type strains of Escherichia coli (ATCC 25922 & 35218) and Pseudomonas aeruginosa (ATCC 27853) as well as the clinically isolated multidrug-resistant strain P. aeruginosa (ATCC BAA-2114). The bacteria were cultured onto Muller Hinton Agar (Scharlab, S.L, Barcelona, Spain). Mueller Hinton Broth (Oxoid Ltd., Basingstoke, UK) was used to prepare all bacterial suspensions and to dissolve the peptides and the antibiotics. The assay was performed in sterile 96-well polypropylene microtiter plates.
According to the broth microdilution checkerboard technique, the MIC and MBC values of peptide-antibiotics combinations against wild type and multidrug resistant bacterial strains were determined. Serial concentrations of peptide and each antibiotic were prepared in the range of 0.005–100 μM. In each well of a 96-well microtiter plate, 25 μL of each peptide concentration were added to 25 μL of each antibiotic concentration which is followed by adding 50 μL of diluted bacterial suspension (10^6 CFU/mL) to each well. The prepared concentrations of peptide and each antibiotic were arranged into rows and columns, respectively, in a 96-well microtiter plate according the checkerboard technique. Then as described previously (see Section 2.4.1), the procedure was followed. All MIC and MBC determinations of all assays were made in triplicate.
The fractional inhibitory concentration (FIC) is defined as the inhibitory concentration of the antimicrobial combination divided by that of the single antimicrobial component. To calculate FIC index for peptide-antibiotic combinations, the following equation was used:(1) FIC index=MIC of drug X in combination/MIC of drug X alone+MIC of drug Y in combination/MIC of drug Y alone
The FIC indices were interpreted as follows: ≤0.5: synergistic activity, 0.5–1: additive activity, 1–4 indifferent, >4: antagonism. Interpretation and assessment of the FIC indices were performed according to the broth microdilution checkerboard technique.

[2] = system: S. aureus (ATCC 33591) biofilm; format: cell-based, Staphylococcus aureus; details: for Viable Biofilm Cells (%): 4 h treatment 37 °C, 8 h recovery, colony count
Experimental: Biofilm formation relied on a published protocol employing the Calgary biofilm device (Innovotech, Edmonton, AB, Canada). Briefly, S. aureus (ATCC 33591) bacterial strain was incubated in MHB and cultures were diluted in the same medium to achieve a concentration of 10^5 CFU/mL. Next, diluted bacterial suspension (150 µL) was added to the sterile 96 peg-lids on which biofilm cells can build up. Negative control lanes were prepared by adding 150 µL MHB to six wells. And then the pegs were incubated for 14–16 h under rotation of 125 rpm at 37 °C to allow biofilm formation on the purpose designed pegs. The pegs were rinsed twice with phosphate-buffered saline (PBS) to remove planktonic cells as a washing step. Each peg-lid was then transferred into a “challenge 96-well microtiter plate” containing 200 μL of different peptides concentrations and the peg-lids containing the biofilms were incubated for four hours at 37 °C under rotation at 125 rpm. After biofilm treatment with the challenge plate, the biofilms were re-washed twice with PBS then transferred into the recovery plate for eight hours. The minimum biofilm eradication concentration MBEC value is defined as the minimum concentration needed to inhibit the re-growth of biofilms after four hours of peptide treatment, washing twice with PBS and incubating in pre-sterilized MHB (recovery plate) for 8 h, using an ELISA plate reader λ = 600 nm. Additionally, the biofilms were assessed for their minimum bactericidal concentration (MBECb), this assay was conducted similar to MBC assay (see Section 2.4.1). MBECb parameter is defined as the lowest concentration able to eradicate 3log^10 of the viable microorganisms in a biofilm (99.9% killing) after 8 h of incubation in recovery plates using the colony count method.

N=C(N)NCCC[C@H](NC(=O)[C@H](Cc1ccc(-c2ccccc2)cc1)NC(=O)[C@H](CCCNC(=N)N)NC(=O)[C@H](Cc1ccc(-c2ccccc2)cc1)NC(=O)[C@@H](N)CCCNC(=N)N)C(=O)O [UP-5] (H-R[Bip]R[Bip]R-OH)
half-life at 75 µg/mL (in vitro; plasma): 2.88 h
metabolised at 1 h, 75 µg/mL (in vitro; plasma): 27%
metabolised at 4 h, 75 µg/mL (in vitro; plasma): 66%
remaining at 1 h, 75 µg/mL (in vitro; plasma): 73%
remaining at 4 h, 75 µg/mL (in vitro; plasma): 34%
half-life at 75 µg/mL (in vitro; serum): < 0.25 h
metabolised at 0.25 h, 75 µg/mL (in vitro; serum): > 80%
UP-5 MIC in Combination ([1]; UP-5 in combination with Ampicillin): 20 µM
UP-5 MIC in Combination ([1]; UP-5 in combination with Chloramphenicol): 10 µM
UP-5 MIC in Combination ([1]; UP-5 in combination with Erythromycin): 27.5 µM
UP-5 MIC in Combination ([1]; UP-5 in combination with Levofloxacin): 20 µM
UP-5 MIC in Combination ([1]; UP-5 in combination with Rifampicin): 25 µM
MBEC value (minimum biofilm eradication concentration) ([2]; ATCC 33591, 4 h): 20 µM
MBCb (MBECb), minimum bactericidal concentration against biofilm cells ([2]; ATCC 33591, 8 h): 20 µM
Viable Biofilm Cells (%) ([2]; peptide concentration 10 μM): 0.35%
Viable Biofilm Cells (%) ([2]; peptide concentration 20 μM): 0.108%
Viable Biofilm Cells (%) ([2]; peptide concentration 30 μM): 0.054%
Viable Biofilm Cells (%) ([2]; peptide concentration 40 μM): 0%
Viable Biofilm Cells (%) ([2]; peptide concentration 60 μM): 0%
Viable Biofilm Cells (%) ([2]; peptide concentration 80 μM): 0%
Viable Biofilm Cells (%) ([2]; peptide concentration 100 μM, compared to untreated biofilm): 0%
